Results as given in US6896895B2, “Carotenoid esters, carotenoid-enriched feeds, and methods of pigmenting foods and foodstuffs” (DSM IP Assets B.V., priority 2000, dated 2005).

Legend:
[1] = Carotenoid ester content and deposition rate in egg yolk of laying hens (HPLC); format: in vivo, laying hens (ISA Brown); details: egg yolk; for Deposition Rate Target Values % of Controls / Ethyl β-apo-8′-carotenoate Equivalents % of Controls: Table 8; for Deposition Rate % of Controls: Table 10
Protocol: (§1) Pigmentation efficacy was assessed in egg yolk, in the back skin of the broiler carcass, and in broiler shanks by reflectance colorimetry accompanied by visual scoring (Roche Colour Fan). The deposition of the ethyl-β-apo-8′-carotenoate (control) and the other carotenoid esters was determined in egg yolk and in the broiler back skin. In addition, the carotenoid levels in plasma and abdominal fat were measured.
Each year in February the pigmentation trials are started with a new flock of layers.
(§2) Preceding the trials the hens were fed a low carotenoid basal diet (produced at the CRNA) without carotenoid supplementation for at least 28 days. During the trials, the control group received the low carotenoid basal diet containing less than 2 mg total xanthophylls per kg of feed. The other animals were fed this diet supplemented with the appropriate pigments for three weeks. The diet was given to the animals ad libitum in mash form. The hens had free access to tap water.
Peaks were related to all-E- and Z-isomers of the various carotenoid esters by chromatography of heat-isomerized solutions of the respective reference substances in n-hexane. The HPLC system was calibrated with the all-E-isomer of ethyl β-apo-8′-carotenoate. The response factor of the various derivatives was deduced from that of ethyl β-apo-8′-carotenoate taking into account the respective molecular weight. The content of the Z-isomer fractions was calculated based on the response of the all-E-isomer and using a correction factor of 1.4 to account for the lower specific absorbance of the Z-isomers.
(§3) The HPLC-system for in-feed analysis was also used to quantify the carotenoid esters in egg yolk, broiler tissues, and broiler plasma, but the extraction procedure was different for the various matrices.
For the extraction of egg yolk, 10 g of pooled and homogenised yolk were mixed with 10 ml of demineralized water using a dispersion instrument (Polytron). 1.0 g of diluted egg yolk was introduced into a 10 ml test tube with 1.0 ml of demineralized water and 2.0 ml of ethanol, and the contents were mixed on a Vortex shaker. After addition of 4.0 ml of n-hexane, the mixture was further treated as described for plasma.

egg yolk = assay: Egg yolk colour: reflectance colorimetry and Roche Yolk Colour Fan; format: in vivo, laying hens (ISA Brown); details: egg yolk, laying hens, 5.0 mg/kg feed
Protocol: as §1
The trials were carried out following the standard experimental design used for egg yolk pigmentation trials at the Roche Research Center for Animal Nutrition (CRNA, F-68305 Village-Neuf, France). Each year in February the pigmentation trials are started with a new flock of layers. At the beginning of the trials the age of the laying hens (192 birds, type ‘ISA Brown’) were as follows:
as §2, with “water. Beside the unsupplemented control treatment, treatments were carried out involving the provision of supplemented feed, the results of these treatments being presented in Tables 7-9.” for “water.”
Egg yolk color was assessed as described by Steinberg, et al. (Arch. Geflügelk 64 (4), 180-187 (2000)). The yolks were manually separated from the whites of the eggs. The isolated yolks of three to six eggs were combined, weighed, and stirred with a glass rod until the color appeared homogeneous. The color hue was visually scored using the Roche Yolk Colour Fan (RYCF, version 1993). An aliquot of the pooled egg yolks was transferred into a glass cuvette yielding an approximately 2 cm thick layer. The color was then measured by means of a Dr. Lange Xeno Color LS 100 spectro-colorimeter with diffuse D65-illumination and a 8° viewing angle.
(§4) The color data were expressed as CIE L*a*b*-values including h*(hue) and C* (chroma). The values given in the tables per treatment and trial represent averages of color measurements of four egg yolk pools, ten broiler back skins, or ten broiler shanks (5 males and 5 females).

[2] = Carotenoid ester content in plasma, back skin and abdominal fat of broilers (HPLC); format: in vivo, broiler chickens (Ross 308, Ross 508); details: average over doses, Table 4
Protocol: as §1
(§5) The trials were carried out using chickens of the type Ross 308 (trials MC-24/98 and MC-02/99) and Ross 508 (trials MC-11/99, MC-16/99, MC-24/99, and MC-03/00) (Couvir de la Bohardière, F-49290 Saint Laurent de la Plaine). One-day old broiler chickens, separated by sex, were divided by weight into experimental groups of ten animals each and reared in floor pens littered with wood shavings. The chickens were fed a low carotenoid basal grower diet until day 22 (trials MC-24/98, MC-02/99, and MC-11/99) or until day 15 (trials MC-16/99, MC-24/99, and MC-03/00). The low carotenoid basal grower diet contained less than 2 mg total xanthophylls per kg of feed, and its composition is described in Table 2. For the subsequent experimental period of three weeks, the birds received the basal diet supplemented with an appropriate pigment. The feed was given in the form of crumbled pellets during the first week and as pellets thereafter. The animals had unrestricted access to feed and water. A given treatment involved one group of male and one group of female chickens. Each group of chickens was weighed at day 22 (trials MC-24/98, MC-02/99, and MC-11/99) or day 15 (trials MC-16/99, MC-24/99, and MC-03/00) and on day 43. On day 42, five chickens per group were selected at random, labelled, and blood samples were taken from the jugular vein. At the end of the experiment (day 44) the animals were slaughtered in a commercial slaughterhouse (Freyburger, Dannemarie, France). The following day, the color of the skin (hind back of carcasses) and the shanks of the labelled chicken were measured by reflectance colorimetry (Minolta CR 200 apparatus, CIE-Lab system). Samples of the dorsal skin and abdominal fat were obtained, pooled for each experimental group, and the carotenoid concentration was determined. The concentration of carotenoids in feed, plasma, skin, and abdominal fat was determined by standard procedures as described after Tables 1 and 2.
The content of the various carotenoid esters in feed was determined according to the method of Schierle, et al. (J. Schierle , N. Faccin, V. Riegert, Analytical Methods for Vitamins and Carotenoids in Feed, Revised supplement: Determination of Stabilized Apocarotenoic Ester and Canthaxanthin in Premixes and Feeds, Roche publication no. 50771 (1995), publicly available from. F. Hoffmann-La Roche Ltd., CH-4070 Basel). This method was modified in that the mobile phase of the normal-phase HPLC contained 0.5% instead of 7% acetone in n-hexane, improving the separation of the E/Z-isomers of the carotenoid esters. Peaks were related to all-E- and Z-isomers of the various carotenoid esters by chromatography of heat-isomerized solutions of the respective reference substances in n-hexane. The HPLC system was calibrated with the all-E-isomer of ethyl β-apo-8′-carotenoate. The response factor of the various derivatives was deduced from that of ethyl β-apo-8′-carotenoate taking into account the respective molecular weight. The content of the Z-isomer fractions was calculated based on the response of the all-E-isomer and using a correction factor of 1.4 to account for the lower specific absorbance of the Z-isomers.
as §3
For plasma extraction, 1.0 g of the well-mixed plasma sample was introduced into a 10 ml test tube with 1.0 ml of demineralized water and 4.0 ml of ethanol, and the contents mixed on a Vortex shaker. […]

[3] = test system: skin and shanks of broilers; assay: Reflectance colorimetry and visual classification of skin and shanks of broilers; format: in vivo, broiler chickens (Ross 308, Ross 508); design: key to Shanks Visual Classification / Skin Visual Classification: −; (+); +; ++ = good color; o = orange; details: dry carcasses, average over doses, Table 6
Protocol: as §1, §5
The color of broiler skin and shanks was measured using a tristimulus Minolta CR-300 Chromameter with diffuse D65-illumination and a 0° viewing angle. The color of the skin was read at three different points on the back of the dry broiler carcasses and average values of the triple measurements were recorded. The color of shanks was measured using single measurements at the ball between the toes.
as §4

Structure (SMILES): CC(C=CC=C(C)C=CC1=C(C)CCCC1(C)C)=CC=CC=C(C)C=CC=C(C)C(=O)OC(C)CC(C)C (stereo not drawn) [(12), 4-methyl-2-pentyl beta-apo-8′-carotenoate]
- Deposition Rate Target Values % of Controls ([1]; trial H-25/99, 5.0 mg/kg feed): 89%
- Ethyl β-apo-8′-carotenoate Equivalents % of Controls ([1]; trial H-25/99, 5.0 mg/kg feed): 79%
- Deposition Rate % of Controls ([1]; trial H-25/99, 5.0 mg/kg feed): 89%
- Color Fan Value % of Controls (egg yolk; trial H-25/99, Table 8): 101%
- Chroma C*ab % of Controls (egg yolk; trial H-25/99, Table 10): 74%
- Color Fan Value % of Controls (egg yolk; trial H-25/99, Table 10): 101%
- Color Hue h*ab % of Controls (egg yolk; trial H-25/99, Table 10): 109%
- Analytical Content as Equivalent of Ethyl β-apo-8′-carotenoate in % of control Fat [2]: 49%
- Analytical Content as Equivalent of Ethyl β-apo-8′-carotenoate in % of control Plasma [2]: 66%
- Analytical Content as Equivalent of Ethyl β-apo-8′-carotenoate in % of control Skin [2]: 85%
- Shanks Chroma C*ab % of Controls [3]: 95%
- Shanks Color Hue h*ab % of Controls [3]: 101%
- Shanks Visual Classification [3]: +
- Skin Chroma C*ab % of Controls [3]: 91%
- Skin Color Hue h*ab % of Controls [3]: 99%
- Skin Visual Classification [3]: +

Structure (SMILES): CC(C=CC=C(C)C=CC1=C(C)CCCC1(C)C)=CC=CC=C(C)C=CC=C(C)C(=O)OC1CCCC1 [(15), cyclopentyl beta-apo-8′-carotenoate]
- Deposition Rate Target Values % of Controls ([1]; trial H-05/00, 5.0 mg/kg feed): 95%
- Ethyl β-apo-8′-carotenoate Equivalents % of Controls ([1]; trial H-05/00, 5.0 mg/kg feed): 95%
- Deposition Rate % of Controls ([1]; trial H-05/00, 5.0 mg/kg feed): 95%
- Color Fan Value % of Controls (egg yolk; trial H-05/00, Table 8): 116%
- Chroma C*ab % of Controls (egg yolk; trial H-05/00, Table 10): 107%
- Color Fan Value % of Controls (egg yolk; trial H-05/00, Table 10): 116%
- Color Hue h*ab % of Controls (egg yolk; trial H-05/00, Table 10): 101%
- Analytical Content as Equivalent of Ethyl β-apo-8′-carotenoate in % of control Fat [2]: 50%
- Analytical Content as Equivalent of Ethyl β-apo-8′-carotenoate in % of control Plasma [2]: 76%
- Analytical Content as Equivalent of Ethyl β-apo-8′-carotenoate in % of control Skin [2]: 77%
- Shanks Chroma C*ab % of Controls [3]: 99%
- Shanks Color Hue h*ab % of Controls [3]: 100%
- Shanks Visual Classification [3]: ++
- Skin Chroma C*ab % of Controls [3]: 106%
- Skin Color Hue h*ab % of Controls [3]: 99%
- Skin Visual Classification [3]: ++

Structure (SMILES): CC(C=CC=C(C)C=CC1=C(C)CCCC1(C)C)=CC=CC=C(C)C=CC=C(C)C(=O)OC1CCCCC1 [(16), cyclohexyl beta-apo-8′-carotenoate]
- Deposition Rate Target Values % of Controls ([1]; trial H-25/99, 5.0 mg/kg feed): 99%
- Ethyl β-apo-8′-carotenoate Equivalents % of Controls ([1]; trial H-25/99, 5.0 mg/kg feed): 82%
- Deposition Rate % of Controls ([1]; trial H-25/99, 5.0 mg/kg feed): 99%
- Color Fan Value % of Controls (egg yolk; trial H-25/99, Table 8): 108%
- Chroma C*ab % of Controls (egg yolk; trial H-25/99, Table 10): 112%
- Color Fan Value % of Controls (egg yolk; trial H-25/99, Table 10): 108%
- Color Hue h*ab % of Controls (egg yolk; trial H-25/99, Table 10): 97%
- Analytical Content as Equivalent of Ethyl β-apo-8′-carotenoate in % of control Fat [2]: 38%
- Analytical Content as Equivalent of Ethyl β-apo-8′-carotenoate in % of control Plasma [2]: 60%
- Analytical Content as Equivalent of Ethyl β-apo-8′-carotenoate in % of control Skin [2]: 44%
- Shanks Chroma C*ab % of Controls [3]: 84%
- Shanks Color Hue h*ab % of Controls [3]: 103%
- Shanks Visual Classification [3]: (+)
- Skin Chroma C*ab % of Controls [3]: 80%
- Skin Color Hue h*ab % of Controls [3]: 95%
- Skin Visual Classification [3]: +
